Like-named read-outs stand apart in the source and are kept apart here.
What was measured:
P. falciparum [1] = test: microbe, parasite or virus in culture; details: Plasmodium falciparum, read-out: chloroquine IC50, control (no NPE added), control without NPE, used to calculate the degree of chloroquine resistance
Protocol: (§1) NPE solutions with increasing average EO content were tested for anti-P. falciparum activity and the IC50S ? of these materials were determined using a non-linear regression analysis.
(§2) P. falciparum cultures were grown in A+ blood obtained by venipuncture of volunteers. Cultures of the laboratory lines ItG and 3D7 [Dolan, 1993] and the patient isolates were maintained by the method of Trager and Jensen [Trager, 1976] using RPMI 1640 supplemented with 10% human serum and 50 μM hypoxanthine. […] In vitro drug susceptibility testing was performed using the WHO In Vitro Micro Test (Mark III) [1997]. The IC50 values were determined using a non-linear regression analysis of the dose-response curve.

P. falciparum [2] = details: read-out: chloroquine IC50, control (no NPE added); control without NPE, used to calculate the degree of chloroquine resistance
Protocol: as §1, §2

Question: With `CCN(CC)CCCC(C)Nc1ccnc2cc(Cl)ccc12` (centres unmarked) [chloroquine] as the compound, how does the IC50 (P. falciparum [1]) read?
Answer: The IC50 was 240 ± 60 nM.

Question: What about the IC50 (P. falciparum [2]) of the same compound?
Answer: Its IC50 is 274 ± 56 nM.

Reference: US7163950B1, “Surfactants as malarial chloroguine resistance reversal agents” (priority 2000, dated 2007)
